Results reported in the supplement of paper PMC10307832.

Experiments:
Experiment in all cases: relative viability (nuclei count vs DMSO), 5 days (fraction); higher = more cells survive
17-AAG + Lapatinib = compound: C=CCNC1=C2C[C@@H](C)C[C@H](OC)[C@H](O)[C@@H](C)/C=C(\C)[C@H](OC(N)=O)[C@@H](OC)/C=C\C=C(/C)C(=O)NC(=CC1=O)C2=O [17-AAG] + CS(=O)(=O)CCNCc1ccc(-c2ccc3ncnc(Nc4ccc(OCc5cccc(F)c5)c(Cl)c4)c3c2)o1 [Lapatinib] (partner 2 µM)
Procedure, shortened: (§1)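 Nuclei were stained with Hoechst during a one-step fixation (final 0.05% Triton X-100, 1% formaldehyde, 1 ug/ml Hoechst) carried out 5 days after dosing, then counted on 4× images. The cells, lung cancer lines in 1536-well plates, had been dosed by pin tool the day after seeding with one drug alone or a fixed anchor-drug dose plus five library-drug doses (not always all listed) in √10 steps. Relative viability is the nuclei count in treated wells divided by that in vehicle wells, and each value is the median of duplicate plates.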

17-AAG + Decitabine = compound: C=CCNC1=C2C[C@@H](C)C[C@H](OC)[C@H](O)[C@@H](C)/C=C(\C)[C@H](OC(N)=O)[C@@H](OC)/C=C\C=C(/C)C(=O)NC(=CC1=O)C2=O [17-AAG] + Nc1ncn([C@H]2C[C@H](O)[C@@H](CO)O2)c(=O)n1 [Decitabine] (partner 2 µM)
Procedure, shortened: as §1

17-AAG + Olaparib = compound: C=CCNC1=C2C[C@@H](C)C[C@H](OC)[C@H](O)[C@@H](C)/C=C(\C)[C@H](OC(N)=O)[C@@H](OC)/C=C\C=C(/C)C(=O)NC(=CC1=O)C2=O [17-AAG] + O=C(c1cc(Cc2n[nH]c(=O)c3ccccc23)ccc1F)N1CCN(C(=O)C2CC2)CC1 [Olaparib] (partner 8 µM)
Procedure, shortened: as §1

17-AAG + AZD7762 = compound: C=CCNC1=C2C[C@@H](C)C[C@H](OC)[C@H](O)[C@@H](C)/C=C(\C)[C@H](OC(N)=O)[C@@H](OC)/C=C\C=C(/C)C(=O)NC(=CC1=O)C2=O [17-AAG] + NC(=O)Nc1cc(-c2cccc(F)c2)sc1C(=O)N[C@H]1CCCNC1 [AZD7762] (partner 0.2 µM)
Procedure, shortened: as §1

| Cell Line | relative viability (17-AAG + Lapatinib; first compound 0.00128 µM) | relative viability (17-AAG + Lapatinib; first compound 0.004048 µM) | relative viability (17-AAG + Lapatinib; first compound 0.0128 µM) | relative viability (17-AAG + Lapatinib; first compound 0.04048 µM) | relative viability (17-AAG + Lapatinib; first compound 0.128 µM) | relative viability (17-AAG + Decitabine; first compound 0.00128 µM) | relative viability (17-AAG + Decitabine; first compound 0.004048 µM) | relative viability (17-AAG + Decitabine; first compound 0.0128 µM) | relative viability (17-AAG + Decitabine; first compound 0.04048 µM) | relative viability (17-AAG + Decitabine; first compound 0.128 µM) | relative viability (17-AAG + Olaparib; first compound 0.00128 µM) | relative viability (17-AAG + Olaparib; first compound 0.004048 µM) | relative viability (17-AAG + Olaparib; first compound 0.0128 µM) | relative viability (17-AAG + Olaparib; first compound 0.04048 µM) | relative viability (17-AAG + Olaparib; first compound 0.128 µM) | relative viability (17-AAG + AZD7762; first compound 0.00128 µM) | relative viability (17-AAG + AZD7762; first compound 0.004048 µM) | relative viability (17-AAG + AZD7762; first compound 0.0128 µM) | relative viability (17-AAG + AZD7762; first compound 0.04048 µM) | relative viability (17-AAG + AZD7762; first compound 0.128 µM) |
| --- | --- | --- | --- | --- | --- | --- | --- | --- | --- | --- | --- | --- | --- | --- | --- | --- | --- | --- | --- | --- |
| NCI-H838 | 1.02 | 0.878 | 0.141 | 0.121 | 0.0916 | 0.405 | 0.45 | 0.217 | 0.195 | 0.2 | 0.768 | 0.591 | 0.139 | 0.128 | 0.133 | 0.978 | 0.849 | 0.669 | 0.633 | 0.604 |
| NCI-H1355 | 0.97 | 0.979 | 0.776 | 0.223 | 0.159 | 0.35 | 0.345 | 0.361 | 0.246 | 0.183 | 0.749 | 0.718 | 0.459 | 0.2 | 0.136 | 0.795 | 0.682 | 0.311 | 0.236 | 0.144 |
| NCI-H1395 | 0.903 | 1.12 | 0.485 | 0.406 | 0.417 | 0.611 | 0.694 | 0.568 | 0.387 | 0.383 | 0.452 | 0.458 | 0.359 | 0.37 | 0.418 | 0.415 | 0.431 | 0.395 | 0.34 | 0.337 |
| NCI-H1437 | 0.825 | 0.7 | 0.247 | 0.151 | 0.0848 | 0.531 | 0.636 | 0.504 | 0.311 | 0.241 | 0.626 | 0.609 | 0.285 | 0.194 | 0.173 | 1.1 | 1.07 | 0.651 | 0.271 | 0.201 |
| NCI-H1651 | 0.841 | 0.874 | 0.519 | 0.168 | 0.146 | 0.389 | 0.68 | 0.481 | 0.362 | 0.179 | 0.173 | 0.19 | 0.21 | 0.153 | 0.159 | 0.463 | 0.512 | 0.482 | 0.364 | 0.136 |
| NCI-H1666 | 0.682 | 0.595 | 0.234 | 0.261 | 0.219 | 0.74 | 0.804 | 0.641 | 0.364 | 0.363 | 0.756 | 0.721 | 0.712 | 0.526 | 0.556 | 0.725 | 0.902 | 0.531 | 0.35 | 0.292 |
| NCI-H1734 | 0.952 | 0.934 | 0.764 | 0.579 | 0.141 | 0.502 | 0.536 | 0.46 | 0.242 | 0.142 | 0.558 | 0.686 | 0.59 | 0.255 | 0.119 | 0.547 | 0.53 | 0.268 | 0.214 | 0.131 |
| NCI-H1755 | 1.06 | 0.972 | 0.772 | 0.27 | 0.165 | 0.695 | 0.772 | 0.671 | 0.643 | 0.391 | 0.873 | 0.849 | 0.903 | 0.712 | 0.238 | 0.47 | 0.468 | 0.362 | 0.234 | 0.195 |
| NCI-H1792 | 0.783 | 1.02 | 0.704 | 0.638 | 0.115 | 0.444 | 0.345 | 0.194 | 0.12 | 0.0575 | 0.456 | 0.284 | 0.221 | 0.0633 | 0.0524 | 0.494 | 0.302 | 0.0583 | 0.0445 | 0.0494 |
| NCI-H1793 | 0.447 | 0.434 | 0.35 | 0.217 | 0.156 | 0.429 | 0.382 | 0.225 | 0.21 | 0.159 | 0.903 | 0.594 | 0.184 | 0.198 | 0.141 | 0.66 | 0.306 | 0.173 | 0.109 | 0.0863 |
| NCI-H1915 | 0.883 | 1.06 | 0.894 | 0.571 | 0.0701 | 0.259 | 0.271 | 0.263 | 0.25 | 0.0807 | 0.263 | 0.268 | 0.233 | 0.129 | 0.0621 | 0.587 | 0.719 | 0.219 | 0.12 | 0.0582 |
| NCI-H1944 | 0.795 | 0.889 | 0.646 | 0.482 | 0.169 | 0.418 | 0.445 | 0.441 | 0.357 | 0.163 | 0.4 | 0.413 | 0.383 | 0.335 | 0.137 | 0.497 | 0.488 | 0.237 | 0.155 | 0.138 |
| NCI-H1975 | 0.872 | 0.739 | 0.256 | 0.166 | 0.11 | 0.378 | 0.396 | 0.266 | 0.175 | 0.14 | 0.745 | 0.765 | 0.158 | 0.128 | 0.121 | 0.753 | 0.656 | 0.331 | 0.203 | 0.216 |
| NCI-H1993 | 0.767 | 0.76 | 0.627 | 0.45 | 0.451 | 0.609 | 0.606 | 0.544 | 0.408 | 0.348 | 1.16 | 0.949 | 0.98 | 0.37 | 0.299 | 0.936 | 0.644 | 0.325 | 0.339 | 0.248 |
| NCI-H2085 | 0.784 | 0.802 | 0.812 | 0.875 | 0.527 | 0.498 | 0.512 | 0.588 | 0.57 | 0.495 | 0.869 | 0.76 | 0.78 | 0.748 | 0.674 | 0.983 | 1.02 | 1 | 1 | 0.551 |
| NCI-H2087 | 0.823 | 0.808 | 0.477 | 0.238 | 0.135 | 0.248 | 0.193 | 0.104 | 0.113 | 0.114 | 0.649 | 0.216 | 0.168 | 0.134 | 0.129 | 1.28 | 1.3 | 0.471 | 0.154 | 0.116 |
